# Test results from patent US9102648B1, “Bioavailable diacylhydrazine ligands for modulating the expression of exogenous genes via an ecdysone receptor complex” (Intrexon Corporation, priority 2003, dated 2015).
# Assays:
# [1] = biological target: T1, Bombyx mori EcR (VP16 fusion, CVBE switch construct) (Bombyx mori, UniProt P49881); test: Z3 Assay (HEK-293 cells with CVBE and 6XEcRE LacZ, β-galactosidase reporter); conditions: for Fold Induction, Z3 Assay, 3.3 uM: 3.3 uM ligand; for Fold Induction, Z3 Assay, 3.3 uM / Fold Induction, Z3 Assay, 33 uM: ligand treated / DMSO treated cells; for Fold Induction, Z3 Assay, 3.3 uM / Fold Induction, Z3 Assay, 33 uM / EC50: average of two wells; for Fold Induction, Z3 Assay, 33 uM: 33 uM ligand; for Z3 assay Rel Max FI: maximum fold induction at any concentration relative to that of GS-E ligand; for Z3 assay Rel Max FI / EC50: HEK-293 Z3 cells; for EC50: read-out: Z3 assay EC50, β-galactosidase reporter
# T1 sequence (P49881 86-606): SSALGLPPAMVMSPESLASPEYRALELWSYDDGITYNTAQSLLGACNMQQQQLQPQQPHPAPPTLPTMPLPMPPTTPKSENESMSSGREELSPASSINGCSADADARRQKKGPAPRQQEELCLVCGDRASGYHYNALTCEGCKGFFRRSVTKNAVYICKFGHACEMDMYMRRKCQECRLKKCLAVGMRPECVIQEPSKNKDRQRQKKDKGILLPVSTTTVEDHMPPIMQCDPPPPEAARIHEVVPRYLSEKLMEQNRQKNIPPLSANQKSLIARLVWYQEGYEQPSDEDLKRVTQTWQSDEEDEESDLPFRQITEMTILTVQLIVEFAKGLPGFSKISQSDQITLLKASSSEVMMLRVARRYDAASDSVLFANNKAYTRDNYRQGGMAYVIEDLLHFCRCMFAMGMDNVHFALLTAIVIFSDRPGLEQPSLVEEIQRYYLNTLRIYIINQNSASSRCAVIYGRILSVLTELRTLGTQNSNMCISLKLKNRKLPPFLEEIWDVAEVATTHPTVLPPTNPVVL
# T1 sequence (P19793 1-462 partner): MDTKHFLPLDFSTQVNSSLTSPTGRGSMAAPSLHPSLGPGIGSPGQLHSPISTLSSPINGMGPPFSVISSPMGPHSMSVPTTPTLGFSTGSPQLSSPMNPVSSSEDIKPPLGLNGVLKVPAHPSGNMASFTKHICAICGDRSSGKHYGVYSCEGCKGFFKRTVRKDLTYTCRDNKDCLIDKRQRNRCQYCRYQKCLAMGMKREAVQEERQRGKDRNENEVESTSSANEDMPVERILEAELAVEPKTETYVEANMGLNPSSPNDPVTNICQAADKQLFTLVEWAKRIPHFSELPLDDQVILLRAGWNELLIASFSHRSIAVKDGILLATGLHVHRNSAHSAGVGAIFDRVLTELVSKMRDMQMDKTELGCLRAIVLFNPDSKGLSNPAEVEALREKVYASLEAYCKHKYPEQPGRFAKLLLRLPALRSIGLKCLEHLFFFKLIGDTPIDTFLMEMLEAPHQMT
# Excerpt: Dr. F. Gage provided a population of stably transformed cells containing CVBE and 6XEcRE as described in Suhr, S. T., Gil, E. B., Senut M. C., Gage, F. H. (1998) Proc. Natl. Acad. Sci. USA 95, 7999-804. Human 293 kidney cells, also referred to as HEK-293 cells, were sequentially infected with retroviral vectors encoding first the switch construct CVBE, and subsequently the reporter construct 6XEcRE Lac Z. The switch construct contained the coding sequence for amino acids 26-546 from Bombyx mori EcR (BE) (Iatrou) inserted in frame and downstream of the VP16 transactivation domain (VBE). A synthetic ATG start codon was placed under the control of cytomegalovirus (CVBE) immediate early promoter and flanked by long terminal repeats (LTR). The reporter construct contained six copies of the ecdysone response element (EcRE) binding site placed upstream of LacZ and flanked on both sides with LTR sequences (6XEcRE).
# Dilution cloning was used to isolate individual clones. Clones were selected using 450 ug/mL G418 and 100 ng/mL puromycin. Individual clones were evaluated based on their response in the presence and absence of test ligands.
# Human 293 kidney cells stably transformed with CVBE and 6XEcRE LacZ were maintained in Minimum Essential Medium (Mediates, 10-010-CV) containing 10% FBS (Life Technologies, 26140-087), […] G418 (Mediates, 30-234-CR), and […] (Sigma, P-7255), at 37° C. in an atmosphere containing 5% CO2 and were subculture when they reached 75% confluence.
# Z3 cells were seeded into 96-well tissue culture plates at a concentration of 2.5×10^3 cells per well and incubated at 37° C. in 5% CO2 for twenty-four hours. Stock solutions of ligands were prepared in DMSO. Ligand stock solutions were diluted 100 fold in media and 50 μL of this diluted ligand solution ([…]) was added to cells. The final concentration of DMSO was maintained at 0.03% in both controls and treatments.
# Reporter gene expression was evaluated 48 hours after treatment of cells, β-galactosidase activity was measured using Gal Screen™ bioluminescent reporter gene assay system from Tropix (GSY1000). Fold induction activities were calculated by dividing relative light units (“RLU”) in ligand treated cells with RLU in DMSO treated cells. Luminescence was detected at room temperature using a Dynex MLX microtiter plate luminometer.
# Flanking both constructs are long terminal repeats, G418 and puromycin are selectable markers, CMV is the cytomegalovirus promoter, VBE is coding sequence for amino acids 26-546 from Bombyx mori EcR inserted downstream of the VP16 transactivation domain, 6×EcRE is six copies of the ecdysone response element, lacZ encodes for the reporter enzyme β-galactosidase.
# (§1) Each assay was conducted in two separate wells, and the two values were averaged. Fold inductions were calculated by dividing relative light units (“RLU”) in ligand treated cells with RLU in DMSO treated cells. EC50s were calculated from dose response data using a three-parameter logistic model.
# [2] = biological target: GAL4 DBD-CfEcR(DEF)/VP16AD-MmRXRE (Choristoneura fumiferana, UniProt O77240); test: 13B3 Assay (CHO stable cell line, luciferase reporter); conditions: for Fold Induction, 13B3 Assay, 33 uM: 33 uM ligand
# Excerpt: GAL4 DBD-CfEcR(DEF)/VP16AD-MmRXRE:
# The wild-type D, E, and F domains from spruce budworm Choristoneura fumiferana EcR (“CfEcR-DEF”; SEQ ID NO: 1) were fused to a GALA DNA binding domain (“Gal4DBD1-147”; SEQ ID NO: 2) and placed under the control of the SV40e promoter of pM vector (PT3119-5, Clontech, Palo Alto, Calif.). The D and E domains from Mus Musculus RXR (“MmRXR-DE”; SEQ ID NO: 11) were fused to the transactivation domain from VP16 (“VP16AD”; SEQ ID NO: 6) and placed under the control of the SV40e promoter of the pVP16 vector (PT3127-5, Clontech, Palo Alto, Calif.).
# CHO cells were transiently transfected with transcription cassettes for GAL4 DBD-CJEcR(DEF) and for VP16AD-MmRXRE controlled by SV40e promoters. Stably transfected cells were selected using Hygromycin. Individually isolated CHO cell clones were transiently transfected with a GALA RE-luciferase reporter (pFR-Luc, Stratagene, La Jolla, Calif.). The 13B3 clone was selected using Zeocin.
# (§2) Cells were trypsinized and diluted to a concentration of 2.5×10^4 cells mL. 100 μL of cell suspension was placed in each well of a 96 well plate and incubated at 37° C. under 5% CO2 for 24 h. Ligand stock solutions were prepared in DMSO and diluted 300 fold for all treatments. Dose response testing consisted of 8 concentrations ranging from 33 μM to 0.01 μM.
# (§3) Luciferase reporter gene expression was measured 48 h after cell treatment using Bright-Glo™ Luciferase Assay System from Promega (E2650). Luminescence was detected at room temperature using a Dynex MLX microtiter plate luminometer.
# as §1
# [3] = biological target: GAL4 DBD (1-147)-CfEcR(DEF)/VP16AD-βRXREF-LmUSPEF (Choristoneura fumiferana, UniProt O77240); test: cell-based
# Excerpt: GAL4 DBD (1-147)-CfEcR(DEF)/VP16AD-βRXREF-LmUSPEF:
# The wild-type D, E, and F domains from spruce budworm Choristoneura fumiferana EcR (“CfEcR-DEF”; SEQ ID NO: 1) were fused to a GAL4 DNA binding domain (“Gal4DBD1-147”; SEQ ID NO: 2) and placed under the control of a phosphoglycerate kinase promoter (“PGK”; SEQ ID NO: 3). Helices 1 through 8 of the EF domains from Homo sapiens RXRβ (“HsRXRβ-EF”; nucleotides 1-465 of SEQ ID NO: 4) and helices 9 through 12 of the EF domains of Locusta migratoria Ultraspiracle Protein (“LmUSP-EF”; nucleotides 403-630 of SEQ ID NO: 5) were fused to the transactivation domain from VP16 (“VP16AD”; SEQ ID NO: 6) and placed under the control of an elongation factor-1α promoter (“EF-1α”; SEQ ID NO: 7). Five consensus GAL4 response element binding sites (“5XGAL4RE”; comprising 5 copies of a GAL4RE comprising SEQ ID NO: 8) were fused to a synthetic TATA minimal promoter (SEQ ID NO: 9) and placed upstream of the luciferase reporter gene (SEQ ID NO: 10).
# CHO cells were transiently transfected with transcription cassettes for GAL4 DBD (1-147) CJEcR(DEF) and for VP16AD βRXREF-LmUSPEF controlled by ubiquitously active cellular promoters (PGK and EF-la, respectively) on a single plasmid. Stably transfected cells were selected by Zeocin resistance. Individually isolated CHO cell clones were transiently transfected with a GAL4 RE-luciferase reporter (pFR Luc). 27-63 clone was selected using Hygromycin.
# as §2, with “[…]” for “33 μM”
# as §3, §1
# [4] = RLU ligand treated / RLU DMSO treated cells, average of two wells
# [5] = 3.3 uM ligand, RLU ligand treated / RLU DMSO treated cells, average of two wells
SMILES,"Fold Induction, Z3 Assay, 3.3 uM [1]","Fold Induction, Z3 Assay, 33 uM [1]",Z3 assay Rel Max FI [1],EC50 [1] [µM],"Fold Induction, 13B3 Assay, 33 uM [2, 4]","Fold Induction, 13B3 Assay, 3.3 uM [2, 5]","13B3 assay Rel Max FI ([2]; maximum fold induction at any concentration relative to that of GS-E ligand, CHO 13B3 cells)","EC50 ([2]; read-out: 13B3 EC50, CHO 13B3 stable cell line, luciferase reporter, 48 h, average of two wells) [µM]","Fold Induction, 27-63 Assay, 3.3 uM [3, 5]","Fold Induction, 27-63 Assay, 33 uM ([3]; 33 uM ligand, RLU ligand treated / RLU DMSO treated cells, average of two wells)","27-63 assay Rel Max FI ([3]; maximum fold induction at any concentration relative to that of GS-E ligand, CHO 27-63 cells)","EC50 ([3]; read-out: 27-63 assay EC50, CHO 27-63 stable cell line, luciferase reporter, average of two wells) [µM]","fold induction at 33 µM ([2]; read-out: Fold Induction, 13B3 Assay, 33 uM)"
Cc1cc(C)cc(C(=O)N(NC(=O)c2ccc3c(c2)OC(C)CO3)C(C)(C)C)c1 (racemic) [RG-101509],1303,328,0.882,1.18,1144,,,,,,,,
CCCCC(CC)N(NC(=O)c1cccc(C)c1C)C(=O)c1ccccc1 (racemic) [RG-103361],171,244,0.938,0.526,2262,504,0.758,28,,,,,
COc1cccc(C(=O)NN(C(=O)c2cc(Cl)nc(Cl)c2)C(C)(C)C)c1C [RG-100394],1339,11,,1.22,178,,,,,,,,
COc1cc(F)ccc1C(=O)N(NC(=O)c1cccc(OC)c1C)C(C)(C)C [RG-100524],991,146,1.002,0.263,1211,,,,,,,,
CCc1c(C(=O)NN(C(=O)c2ccc(F)cc2)C(C)(C)C)ccc2c1OCOC2 [RG-100574],,389,,1.12,,,,,151,21,0.371,4,
COc1cccc(C(=O)NN(C(=O)c2cc(F)ccc2F)C(C)(C)C)c1C [RG-100603],,453,,,570,,,,,,,,
CC(C)(C)N(NC(=O)c1c(F)ccc(F)c1F)C(=O)c1ccc(F)cc1Cl [RG-100620],710,428,0.869,2.4,13982,,,,,,,,
CCc1c(OC)cccc1C(=O)NN(C(=O)c1cc(C)nc(Cl)c1)C(C)(C)C [RG-100667],1480,238,0.890,0.347,1191,,,,,,,,
CCc1c(C(=O)NN(C(=O)c2ccccc2OC)C(C)(C)C)ccc2c1OCO2 [RG-100698],1089,591,1.025,1,434,,,,,,,,
CC(=O)Oc1cccc(C(=O)NN(C(=O)c2cc(C)cc(C)c2)C(C)(C)C)c1C [RG-100749],874,145,0.951,2.69,288,,,,,,,,
COc1cc(OC)cc(C(=O)N(NC(=O)c2cccc(C)c2C)C(C)(C)C)c1 [RG-100764],915,369,0.900,2.34,3814,,,,,,,,
"CCc1c(OC)cccc1C(=O)NN(C(=O)c1ccc2ncn(C(c3ccccc3)(c3ccccc3)c3ccccc3)c2c1)C(C)(C)C [RG-115718, 3-trityl-3H-benzoimidazole-5-carboxylic acid N-tert-butyl-N′-(2-ethyl-3-methoxy-benzoyl)-hydrazide]",,,,,,,,,,,,,2
